Data as given in ChEMBL document CHEMBL5126567, “Synthesis of novel immunomodulatory 1,4-disubstituted bis-1,2,3-triazoles by using click chemistry and their intracellular mechanism of action” (Bioorg Med Chem Lett, 2022).
Active and inactive are the calls of the source. The rule behind the calls is not given here.

How the values were obtained:
J774.2 [1] = experiment: Antiinflammatory activity in LPS-induced mouse J774.2 cells assessed as decrease in GMCSF level at 1 to 10 ug/mL measured after 24 hrs by ELISA; assay type: functional, cell-based; details: dose 1-10 µg/ml
J774.2 [2] = experiment: Antiinflammatory activity in LPS-induced mouse J774.2 cells assessed as decrease in TNF-alpha level at 1 to 10 ug/mL measured after 24 hrs by ELISA; assay type: functional, cell-based; details: dose 1-10 µg/ml
J774.2 [3] = experiment: Antiinflammatory activity in LPS-induced mouse J774.2 cells assessed as decrease in IL6 level at 1 to 10 ug/mL measured after 24 hrs by ELISA; assay type: functional, cell-based; details: dose 1-10 µg/ml
J774.2 [4] = experiment: Cytotoxicity against mouse J774.2 cells assessed as cell viability; assay type: toxicity, cell-based
J774.2 [5] = experiment: Inhibition of PI3K/AKT signalling pathway in LPS-induced mouse J774.2 cells assessed as decrease in phosphorylated PI3K level at 10 ug/mL after 24 hrs by flow cytometry; assay type: cell-based; details: dose 10.0 µg/ml

Structure (SMILES) | Activity (J774.2 [1]) | Activity (J774.2 [2]) | Activity (J774.2 [3]) | Activity (J774.2 [4]) | inhibition (J774.2 [5])
CCOC(=O)c1cn(CC(=O)Nc2ccccc2NC(=O)Cn2cc(C(=O)OCC)nn2)nn1 | Active | Active | Active | Non-Toxic | 
O=C(Cn1cc(C2CCCC2)nn1)Nc1ccccc1NC(=O)Cn1cc(C2CCCC2)nn1 | Active | Active | Active | Non-Toxic | Active
O=C(Cn1cc(-c2ccccc2)nn1)Nc1ccccc1NC(=O)Cn1cc(-c2ccccc2)nn1 | Active | Active | Active | Non-Toxic | 
O=C(Cn1cc(CC2CCCCC2)nn1)Nc1ccccc1NC(=O)Cn1cc(CC2CCCCC2)nn1 | Active | Active | Active | Non-Toxic | Active
CCCC(C)c1cn(CC(=O)Nc2ccccc2NC(=O)Cn2cc(C(C)CCC)nn2)nn1 (stereo not drawn) | Active | Active | Active | Non-Toxic | Active
O=C(Cn1cc(C2CC2)nn1)Nc1ccccc1NC(=O)Cn1cc(C2CC2)nn1 | Active | Active | Active | Non-Toxic | Active
